Patent publication US20060025394A1, “Estradiol-related compounds and methods of use as anti-tumor agents” (priority 2003, published 2006)
“Also recorded” adds a separate entry of the source.

Legend:
[1] = test system: DU-145; test: Cytotoxicity testing (Example 7), MTS, DU-145; format: cell-based; details: Table 3; five days, 1 mM of each compound, defined media, MTS
Protocol: Cytotoxicity Studies were done in DU-145 and MCF-7 Cells. […] We set out to test the efficacy of these compounds based on known affinities for ER-α previously reported. Cells were treated for five days with 1 mM of each compound in a defined media. Cell number was estimated by the MTS method. Similar studies were carried out in the MCF-7 cell line known to express both ER-α and -β, and display proliferative properties in the presence of classic estrogens.

[2] = test system: PC3; test: MTS cell viability assay in PC3; format: cell-based
Protocol: (§1) DU145, LNCaP, PC3, and MCF-7 cells were obtained from the American Type Culture Collection (Manassas, Va.). DU145, PC3, and MCF-7 cells were maintained in Dulbecco's modified Eagle's medium/F-12 supplemented with 5% heat inactivated Fetal Calf Serum and Penicillin/Streptomycin (Invitrogen Life Technologies, Carlsbad, Calif.). LNCaP cells were maintained in RPMI 1640 medium supplemented in the same fashion. Cells were cultured in 75 cm^2 flasks (Falcon, BD Biosciences, Bedford, Mass.) at 37° C. and 5% CO2. For the MTS assay (Example 3), five thousand cells were plated in each well of a 24 well plate (Falcon), were allowed to attach for a 48-hour period in the media described, and changed to a defined medium, (DMEM/F-12 or RPMI1640) supplemented with insulin (BD Biosciences). A 1000× solution of the compound of interest solubilized in DMSO (Sigma, Saint Louis, Mo.) was diluted in the defined media just prior to starting each experiment, and media was refreshed every 48 to 72 hours throughout the experiments.
(§2) Cell viability assays were carried out with five logs of concentration between 0.1 nM and 1 μM for APVE2, including controls in three prostate cancer cell lines (DU145, LNCaP, and PC3, and in a breast cancer cell line (MCF-7). Upon completing five days of treatment, the medium in each well was exchanged for 400 μL of an MTS solution (3-(4,5-dimethylthiazol-2-yl)-5-(3-carboxymethoxyphenyl)-2-(4-sulfophenyl)-2H-tetrazolium, inner salt; O'Toole SA, 2003, Cancer Detect Prev., 2003;27(1):47-54) spiked into media as per the manufacture's instructions (Promega, Madison, Wis.) and incubated for 2 hours at 37° C. before reading the absorbance on the μQuant UV/VIS plate reader, in conjunction with KCjunior Software (Bio-Tek Instruments, Winooski, Vt.) set at 490 nm. All experiments were carried out in quadruplicate, control wells were treated with the carrier DMSO. E2, which is estradiol-17β (Steraloids®, Newport, R.I.) and resveratrol (Sigma) were used as controls. […] EC50 values were calculated with GraphPad Prism software (GraphPad Software Inc., San Diego, Calif.).

[3] = test system: DU145 cells; test: ER competition study, MTS assay with E2 as the competitor; details: DU145, co- or 1 hour pre-treatment with 1 μM E2
[4] = test system: LNCaP; test: MTS cell viability assay in LNCaP; format: cell-based
Protocol: (§3) DU145, LNCaP, PC3, and MCF-7 cells were obtained from the American Type Culture Collection (Manassas, Va.). DU145, PC3, and MCF-7 cells were maintained in Dulbecco's modified Eagle's medium/F-12 supplemented with 5% heat inactivated Fetal Calf Serum and Penicillin/Streptomycin (Invitrogen Life Technologies, Carlsbad, Calif.). LNCaP cells were maintained in RPMI 1640 medium supplemented in the same fashion. Cells were cultured in 75 cm^2 flasks (Falcon, BD Biosciences, Bedford, Mass.) at 37° C. and 5% CO2. […]
as §2, with “nm.” for “nm. All experiments were carried out in quadruplicate, control wells were treated with the carrier DMSO. E2, which is estradiol-17β (Steraloids®, Newport, R.I.) and resveratrol (Sigma) were used as controls.”

[5] = target: T1, ER-β (Homo sapiens, UniProt Q92731); test: Estrogen receptor relative binding affinity assay, fluorescence polarization, ER-β
T1 construct: purchased Pan Vera, Madison, Wis
T1 sequence (Q92731 whole entry): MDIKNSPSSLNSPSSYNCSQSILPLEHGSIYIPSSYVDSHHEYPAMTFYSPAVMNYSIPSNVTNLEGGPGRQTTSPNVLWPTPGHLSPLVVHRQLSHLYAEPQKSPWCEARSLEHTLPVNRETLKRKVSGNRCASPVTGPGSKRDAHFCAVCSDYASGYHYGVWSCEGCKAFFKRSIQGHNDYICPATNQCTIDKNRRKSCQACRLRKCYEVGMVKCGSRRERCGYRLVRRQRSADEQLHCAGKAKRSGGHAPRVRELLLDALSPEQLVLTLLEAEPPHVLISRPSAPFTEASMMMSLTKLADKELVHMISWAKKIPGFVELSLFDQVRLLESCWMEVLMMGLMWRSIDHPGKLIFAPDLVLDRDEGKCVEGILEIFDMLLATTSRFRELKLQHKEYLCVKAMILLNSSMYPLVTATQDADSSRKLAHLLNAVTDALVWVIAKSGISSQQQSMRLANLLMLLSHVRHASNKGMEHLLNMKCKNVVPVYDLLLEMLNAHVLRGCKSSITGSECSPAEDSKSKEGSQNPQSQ
Protocol: All assays were carried out as per the manufacture's instructions with the following modifications.

[6] = test system: MCF-7; test: MTS cell viability assay in MCF-7; format: cell-based; details: MCF-7, data not shown
Protocol: as §3
as §2, with “nm.” for “nm. All experiments were carried out in quadruplicate, control wells were treated with the carrier DMSO. E2, which is estradiol-17β (Steraloids®, Newport, R.I.) and resveratrol (Sigma) were used as controls.”

[7] = test system: DU145; test: MTS cell viability assay in DU145; format: cell-based
Protocol: as §1
. Upon completing five days of treatment, the medium in each well was exchanged for 400 μL of an MTS solution (3-(4,5-dimethylthiazol-2-yl)-5-(3-carboxymethoxyphenyl)-2-(4-sulfophenyl)-2H-tetrazolium, inner salt; O'Toole SA, 2003, Cancer Detect Prev., 2003;27(1):47-54) spiked into media as per the manufacture's instructions (Promega, Madison, Wis.) and incubated for 2 hours at 37° C. before reading the absorbance on the μQuant UV/VIS plate reader, in conjunction with KCjunior Software (Bio-Tek Instruments, Winooski, Vt.) set at 490 nm. All experiments were carried out in quadruplicate, control wells were treated with the carrier DMSO. E2, which is estradiol-17β (Steraloids®, Newport, R.I.) and resveratrol (Sigma) were used as controls. […]

[8] = test system: NCR nude mice; details: 5 to 40 mg/kg/day bolus IM injection, 40-day period
Protocol: Doses included 5 to 40 mg/kg/day bolus IM injection. Toxicity effects were gauged based on changes in animal weight and gross analysis of specific organs including liver, lung, prostate, brain, spleen, heart, and kidney, collected, and fixed in paraffin sections.

[9] = test system: DU145 cells; test: Flow cytometry cell cycle analysis; format: cell-based; details: 16 nM
Protocol: The cells were trypsinized for five minutes, scraped, washed in serum containing media, centrifuged at 300 rpm for 10 minutes, and fixed in ice-cold 70% ethanol for 24 hours at −20° C. The cells were again pelleted and resuspended in buffer containing nine parts 0.05M Na2HPO4 and one part 25 mM citric acid with 0.1% Triton X-100 (pH 7.8) for 2 hours. Cells were pelleted, resuspended in a buffer ([…], 0.1 N NaCl, 2 mM MgCl2, and 0.1% Triton X-100) containing 20 μg PI and 50 μg/ml RNAse (pH 6.8), and incubated in the dark at room temperature for 30 minutes. Cell cycle distribution and DNA content analysis were assayed according to standard methods with a FACS sorter, FACScan™ flow cytometer (Becton Dickinson, Mountain View, Calif.), and analyzed by the Cell Cycle Multi-Cycle system (Phoenix Flow System, San Diego, Calif.). Approximately 15,000 single events were collected, and cell-cycle distribution was determined using Modfit LT version 2 software (Verity House, Inc., Topsham, Me.). All analyses were carried out in quadruplicate.

Question: Which “DU145 % Cell#” value [1] does the source give for `C[C@]12CC[C@@H]3c4ccc(O)cc4CC[C@H]3[C@@H]1CC[C@@]2(O)/C=C\c1ccc(N)cc1` [APVE2, 17α-20Z-21-[(4-amino)phenyl]-19-norpregna-1,3,5(10),20-tetraene-3,17β-diol] here?
Answer: 10%

Question: What about the EC50 ([2]; Homo sapiens, PC-3, 120 h, PC3, five day treatment, read-out: EC50 (cell death, MTS)) of the same compound?
Answer: 2.7 nM

Question: And the “increase in cell proliferation over non-treated controls” value ([2]; PC3, 1 nM)?
Answer: 20%

Question: And the “decrease in cell number” value ([2]; PC3, 5 days of treatment at 1 μM)?
Answer: 81±0.8%

Question: And the “reversal of cytotoxicity of 16 nM APVE2 by E2” value [3]?
Answer: not effected; also recorded: not reversed

Question: What about the “decrease in cell number” value ([4]; 5 days of treatment at 1 μM) of the same compound?
Answer: 69±2.3%

Question: And the EC50 ([4]; Homo sapiens, 120 h, five day treatment, read-out: EC50 (cell death, MTS))?
Answer: 1.4 nM

Question: And the “preference for ER-β over ER-α” value [5]?
Answer: 7 fold

Question: And the EC50 ([5]; fluorescence polarization, 25° C., 2 hours)?
Answer: 250 nM

Question: What about the “ER-β % RBA” value ([5]; ratio of EC50 values as compared to E2) of the same compound?
Answer: 6.2%

Question: And the ER-α/ER-β ([5]; ratio of RBAs)?
Answer: 0.14

Question: And the cell death [6]?
Answer: did induce cell death

Question: What about the “proliferation / growth response” value [6] of the same compound?
Answer: no growth response; also recorded: did not cause an increase in proliferation

Question: And the “decrease in cell number” value ([7]; DU145, 5 days of treatment at 1 μM)?
Answer: 92±0.9%

Question: And the EC50 ([7]; Homo sapiens, DU-145, 120 h, read-out: EC50 (cell death, MTS))?
Answer: 16 nM

Question: And the “general toxicity (animal weight, gross analysis of organs)” value [8]?
Answer: No apparent detrimental effects

Question: And the “increase in G2/M accumulation” value [9]?
Answer: over 4 fold

Question: What about the “G1/G0 phase, compared to non-treated controls” value ([9]; day 2-3) of the same compound?
Answer: 135%

Question: What about the “G2/M, compared to non-treated controls” value ([9]; day 3) of the same compound?
Answer: no change

Question: What about the “S phase, decrease to, compared to non-treated controls” value ([9]; day 3) of the same compound?
Answer: 32%

Question: What about the “G1/G0, decrease to, over non-treated controls” value ([9]; day 4) of the same compound?
Answer: 48%

Question: And the “S phase, over non-treated controls” value ([9]; day 4)?
Answer: 73%

Question: What about the “G2/M arrest, over non-treated controls” value ([9]; day 4-5) of the same compound?
Answer: 420%

Question: And the “loss of G1” value ([9]; four to five days)?
Answer: over 48%

Question: And the “loss in S phase” value ([9]; second and third day)?
Answer: up to 68%
